Results as given in patent publication US20160318928A1, “TRICYCLIC COMPOUNDS AS ANTICANCER AGENTS” (BRISTOL-MYERS SQUIBB COMPANY, priority 2013, published 2016).

Columns and labels:
[1] = test system: H187 Human Small Cell Carcinoma; test: Human tumor xenograft model in mice, H187; format: in vivo
Description: (§1) Human Tumor Xenograft Models in Mice
(§2) All rodents were obtained from Jackson Laboratory. (Bar Harbor, Me.), and maintained in an ammonia-free environment in a defined and pathogen-free colony. All mice were quarantined approximately 1 week prior to their use for tumor propagation and drug efficacy testing. Mice were fed food and water ad libitum. The animal care program of Bristol-Myers Squibb Pharmaceutical Research Institute is fully accredited by the American Association for Accreditation of Laboratory Animal Care (AAALAC). All experiments were performed in accordance with Bristol-Myers Squibb (BMS) animal test methods and guidelines.
(§3) Tumor xenografts were grown and maintained subcutaneously (SC) in NSG (NOD scid IL2 receptor gamma chain knockout) mice (Jackson Lab). Tumors were propagated as subcutaneous transplants using tumor fragments obtained from donor mice.
(§4) Preclinical Chemotherapy Trials
(§5) The required numbers of animals needed to detect a meaningful response were pooled at the start of the experiment and each was given bilateral subcutaneous implants of two tumor fragments (˜20 mg) with a 13-gauge trocar. Tumors were allowed to grow to the pre-determined size window (tumors outside the range were excluded) and animals were evenly distributed to various treatment and control groups. There were typically 6-8 mice per treatment and control groups, consisting of 10-12 tumors. Treatment of each animal was based on individual body weight. Treated animals were checked daily for treatment related toxicity/mortality. Each group of animals was weighed before the initiation of treatment (WO and then again following the last treatment dose (Wt2). The difference in body weight (Wt2-Wt1) provides a measure of treatment-related toxicity.
(§6) Tumor response was determined by measurement of tumors with a caliper twice a week, until the tumors reached a predetermined “target” size of 0.5 gm or 1 gm depending on the tumor type. Tumor weights (mg) were estimated from the formula:
(§7) Tumor weight=(length×width^2)÷2
(§8) Tumor response criteria are expressed in terms of tumor growth inhibition (% TGI). Tumor growth delay is defined as the difference in time (days) required for the treated tumors (T) to reach a predetermined target size compared to those of the control group (C). For this purpose, the tumor weight of a group is expressed as medium tumor weight (MTW).
(§9) Tumor growth inhibition is calculated as follows:
(§10) where, Ct=Median control tumor size at end of treatment C0=Median control tumor size at treatment initiation Tt=Median tumor size of treated group at end of treatment T0=Median tumor size of treated group at treatment initiation
(§11) Tumor response was also expressed in terms of tumor growth delay and expressed as log cell kill (LCK value), defined as the difference in time (days) required for the treated tumors (T) to reach a predetermined target size compared to those of the control group (C).
(§12) Whenever possible, antitumor activity was determined at a range of dose levels up to the maximum tolerated dose (MTD) which is defined as the dose level immediately […] which excessive toxicity (i.e. more than one death) occurred. When death occurred, the day of death was recorded. Treated mice dying prior to having their tumors reach target size were considered to have died from drug toxicity. No control mice died bearing tumors less than target size. Treatment groups with more than one death caused by drug toxicity were considered to have had excessively toxic treatments and their data were not included in the evaluation of a compound's antitumor efficacy.
(§13) For administration of BET inhibitors to rodents, compounds were dissolved in […]/10% TPGS/10% Ethanol. BET inhibitors were typically administered orally on a schedule of QDx7 or QDx10 (5 day-on-2 day-off), although other schedules had also been evaluated and shown to be efficacious

[2] = test system: JJN3R multiple myeloma cell line; test: Human tumor xenograft model in mice, JJN3R; format: in vivo; settings: Mus musculus, JJN-3R, po, QDx7, read-out: % TGI
Description: as §1, §2, §3, §4, §5, §6, §7, §8, §9, §10, §11, §12, §13

BRD4 = BRD4 (Homo sapiens, UniProt O60885); test: Time resolved fluorescence resonance energy transfer (TR-FRET) binding assay, BRD4 bromodomain; settings: one of the FRET assays described

Cc1noc(C)c1-c1cnc2c3ccc(C(C)(C)O)cc3n(C(c3ccccc3)C3CCOCC3)c2c1 (single isomer, unassigned) [Example 1, 2-[3-(Dimethyl-1,2-oxazol-4-yl)-5-[oxan-4-yl(phenyl)methyl]-5H-pyrido[3,2-b]indol-7-yl]propan-2-ol]
% TGI ([1]; 5 mg/kg, 2QDx7): 88.0%
LCK ([1]; 5 mg/kg, 2QDx7): 1.0
% TGI ([1]; 15 mg/kg, 2QDx7): 104.0%
LCK ([1]; 15 mg/kg, 2QDx7): 1.2

Cc1nnn(C)c1-c1cnc2c3ccc(C(C)(C)O)cc3n([C@H](c3ccccc3)C3CCOCC3)c2c1 (single isomer, unassigned) [Example 54]
% TGI ([1]; 5 mg/kg, QDx7): 100.0%
LCK ([1]; 5 mg/kg, QDx7): 0.7
% TGI ([1]; 10 mg/kg, QDx7): 102.0%
LCK ([1]; 10 mg/kg, QDx7): 0.9

[2H]C([2H])([2H])c1nnn(C)c1-c1cnc2c3ccc(C(C)(C)O)cc3n(C(c3ccc(F)cc3)C3CCOCC3)c2c1 (stereo not drawn) [Example 267]
inhibition in vivo at 1 mg/kg [2]: 10%
inhibition in vivo at 4 mg/kg [2]: 67%
IC50 (BRD4): < 5 nM

[2H]C([2H])([2H])c1nnn(C)c1-c1cnc2c3cc(F)c(C(C)(C)O)cc3n([C@H](c3ccccc3)C3CCOCC3)c2c1 [Example 279, 2-{8-Fluoro-3-[4-(^2H3)methyl-1-methyl-1H-1,2,3-triazol-5-yl]-5-[(S)-oxan-4-yl(phenyl)methyl]-5H-pyrido[3,2-b]indol-7-yl}propan-2-ol]
inhibition in vivo at 1 mg/kg [2]: 88%
inhibition in vivo at 4 mg/kg [2]: 110%

[2H]C([2H])([2H])c1nnn(C)c1-c1cnc2c3ccc([C@@](C)(O)C4CC4)c(F)c3n([C@H](c3ccccc3)C3CCOCC3)c2c1 [Example 433, (1 S)-1-cyclopropyl-1-{6-fluoro-3-[4-(^2H3)methyl-1-methyl-1H-1,2,3-triazol-5-yl]-5-[(S)-oxan-4-yl(phenyl)methyl]-5H-pyrido[3,2-b]indol-7-yl}ethan-1-ol]
inhibition in vivo at 1 mg/kg [2]: 54%

[2H]C([2H])([2H])c1nnn(C)c1-c1cnc2c3ccc([C@](C)(O)C4CC4)c(F)c3n([C@H](c3ccccc3)C3CCOCC3)c2c1 [Example 434, (1R)-1-cyclopropyl-1-{6-fluoro-3-[4-(^2H3)methyl-1-methyl-1H-1,2,3-triazol-5-yl]-5-[(5)-oxan-4-yl(phenyl)methyl]-5H-pyrido[3,2-b]indol-7-yl}ethan-1-ol]
inhibition in vivo at 1 mg/kg [2]: 82%
